# Source: publication PMC7066533 (Frontiers in Pharmacology, 2020)
# Values joined by “and” are separate entries in the source; they are usually repeats but may differ in a detail not shown here. Equal entries are not always repeated. Where two headings read alike, the source gives them in different places. Square brackets hold non-standard residues; d marks the D form. Peptide text beside a SMILES is read from it. βAla = NCCC(=O)O
# What was measured:
# U87-MG cells = test: Cell proliferation assay ([3H]-thymidine incorporation) in U87-MG cells; format: cell-based, human
# Method: A cell proliferation assay was carried out as previously reported ([Bedini et al., 2017]). Briefly, U87-MG cells or normal human astrocytes were plated on a 12-well plate and treated as described in the results section or maintained in cell culture medium containing 10% fetal bovine serum. Five hours before the end of the treatments, [methyl-^3H] thymidine (Perkin Elmer) (50 nM final concentration) was added to serum-free cell culture medium, and the plate was incubated at 37°C. Thereafter, the medium was removed, and the cells were washed twice with PBS. Then, 200 μl of PBS was added to each well, and the cells were scraped off and centrifuged at 13,000 g for 3 min at 4°C. The supernatants were then discarded, pellets were re-suspended in 500 μl of cold trichloroacetic acid (10% w/v), incubated on ice for 20 min and centrifuged at 13,000 g for 3 min at 4°C. The supernatant was then discarded, and the pellet was suspended in 500 μl of cold methanol and centrifuged at 3 min for 13,000 g at 4°C. Thereafter, the pellet was suspended in 200 μl of 1 N NaOH and heated at 55°C for 10 min. Samples were then neutralized with 200 μl of 1 N HCl and 350 μl of the labelled DNA incubated in counting vials with 4 ml of Filter Count scintillation liquid (Perkin Elmer Italia). Vials were vortexed and incubated overnight at room temperature, and the radioactivity was determined by liquid scintillation spectrometry.
# normal human astrocytes = format: cell-based; settings: SB203580 2 µM, 30 min prior to U50,488
# hMOPr = target: T1, hMOPr (Homo sapiens, UniProt P35372); test: Displacement binding assay with [3H]DAMGO on HEK-293/hMOPr membranes
# T1 construct: expressed in transfected cells
# hDOPr = target: T2, hDOPr (Homo sapiens, UniProt P41143); test: Displacement binding assay with [3H]diprenorphine on HEK-293/hDOPr membranes
# T2 construct: expressed in transfected cells
# KOPr [1] = target: T3, KOPr (Homo sapiens, UniProt P41145); test: cell-based
# [2] = target: KOPr in U87-MG human astrocytoma cells (Homo sapiens, UniProt P41145); test: cell-based; settings: U-87 MG, read-out: Emax U87-MG
# [3] = target: KOPr in normal human astrocytes (Homo sapiens, UniProt P41145); test: cell-based; settings: read-out: Emax NHA
# KOPr [4] = target: T3, KOPr; format: cell-based
# hKOPr = format: cell-based, human
# ERK1/2 phosphorylation = test: ERK1/2 phosphorylation, western blot; format: cell-based, human
# Method: HEK-293 cells stably expressing KOPr, U87-MG astrocytoma cells, or normal human astrocytes endogenously expressing KOPr were plated into 6-well plates until 60–70% confluence was reached. Then, the cells were serum-starved for 16–18 h and subsequently exposed to vehicle, LOR17 (1 μM; 0–120 min) or U50,488 (1 μM; 0–120 min). Alternatively, […] and U87-MG cells were exposed to norBNI (10 μM; 30 min prior to LOR17) and then treated with 1 μM LOR17, or they were exposed to increasing concentration of LOR17 (1–100 μM; 30 min). Proteins were extracted as previously reported ([Kuhar et al., 2015]), quantified by means of BCA assay (Pierce) and SDS-page gel electrophoresis performed as previously described for ERK1/2 ([Baiula et al., 2016]) and p38MAPK ([Schattauer et al., 2012]).
# Membranes were then incubated with anti-phospho-ERK 1/2 (1:1,000) (Cell Signaling Technology, Danvers, MA, USA), anti-total ERK1/2 antibodies (1:1,000) (Cell Signaling Technology), anti-phospho-p38MAPK antibodies (1:1,000) (Cell Signaling Technology, Danvers, MA, USA), or anti-actin antibodies (1:2,500) (Santa Cruz Biotechnology, Dallas, TX, USA) at 4°C in the presence of BSA (5 g/100 ml) in Tris buffered saline containing Tween-20 (0.1 g/100 ml). […]
# p38MAPK phosphorylation = format: cell-based, human
# CD-1 adult male mice [5] = test: Warm-water tail-withdrawal test; format: in vivo, mouse
# Method: The warm-water tail-withdrawal test was performed as previously described ([Bedini et al., 2010]). Briefly, a mouse’s tail was immersed in hot water (52 ± 0.5°C), and the latency to tail withdrawal was measured as an indicator of nociception. Prior to being treated, each mouse was tested, and the latency to tail withdrawal was recorded (control latency, CL). Animals not withdrawing their tails within 5 s were not used (6% of mice). Responding animals were then injected i.p. with either vehicle or one of the compounds (LOR17 or U50,488; 0–20 mg/kg). The KOR antagonist norBNI (10 mg/kg; i.p.) was injected 30 min or 24 h prior to administering LOR17.
# Latency to withdrawal was measured at 5, 15, 30, 45, 60, and 90 min after drug administration and defined as the test latency (TL), with a cutoff time of 10 s.
# CD-1 adult male mice [6] = settings: mouse, in vivo
# CD-1 adult male mice [7] = settings: mouse, in vivo; remark: listed apart in the source
# CD-1 adult male mice [8] = test: Hole-board test; format: in vivo, mouse; settings: 10 mg/kg s.c.
# Method: The hole-board test consisted of a […] plane with 16 flush-mounted cylindrical holes (3 cm diameter) distributed four by four in an equidistant, grid-like manner. Mice were placed on the center of the board one by one and allowed to move about freely for a period of 5 min. Two electric eyes, crossing the plane from midpoint to midpoint of the opposite sides, thus dividing the plane into four equal quadrants, automatically signaled the movement of the animal (counts in 5 min) on the surface of the plane (spontaneous motility). Miniature photoelectric cells in each of the 16 holes recorded (counts in 5 min) the exploration of the holes (exploratory activity) by the mice ([Guerrini et al., 2006]).
# CD-1 adult male mice [9] = settings: mouse, in vivo; remark: listed apart in the source
# [10] = norBNI 10 µM 15 min prior, SB203580 2 µM 30 min prior, LOR17 10 μM co-administered
# T3 sequence (P41145 whole entry): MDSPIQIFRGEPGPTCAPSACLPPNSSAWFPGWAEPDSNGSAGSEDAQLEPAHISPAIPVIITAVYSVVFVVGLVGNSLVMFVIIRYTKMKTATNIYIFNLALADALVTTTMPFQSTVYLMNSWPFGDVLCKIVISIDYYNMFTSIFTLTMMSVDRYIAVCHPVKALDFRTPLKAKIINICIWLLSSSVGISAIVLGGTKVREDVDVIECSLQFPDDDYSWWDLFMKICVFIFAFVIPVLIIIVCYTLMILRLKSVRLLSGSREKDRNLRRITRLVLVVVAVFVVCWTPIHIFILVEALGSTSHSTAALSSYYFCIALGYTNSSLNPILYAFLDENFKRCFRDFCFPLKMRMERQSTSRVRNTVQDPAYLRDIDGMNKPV
# T2 sequence (P41143 whole entry): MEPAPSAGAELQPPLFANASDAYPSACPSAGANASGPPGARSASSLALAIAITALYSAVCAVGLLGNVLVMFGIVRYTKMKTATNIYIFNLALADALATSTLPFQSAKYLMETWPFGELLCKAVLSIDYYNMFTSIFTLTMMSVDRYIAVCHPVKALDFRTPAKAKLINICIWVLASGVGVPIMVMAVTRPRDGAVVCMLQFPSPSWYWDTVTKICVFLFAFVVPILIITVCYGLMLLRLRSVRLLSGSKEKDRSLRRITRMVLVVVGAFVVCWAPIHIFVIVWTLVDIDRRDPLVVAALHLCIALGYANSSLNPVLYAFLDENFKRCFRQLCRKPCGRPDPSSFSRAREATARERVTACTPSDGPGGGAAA
# T1 sequence (P35372 whole entry): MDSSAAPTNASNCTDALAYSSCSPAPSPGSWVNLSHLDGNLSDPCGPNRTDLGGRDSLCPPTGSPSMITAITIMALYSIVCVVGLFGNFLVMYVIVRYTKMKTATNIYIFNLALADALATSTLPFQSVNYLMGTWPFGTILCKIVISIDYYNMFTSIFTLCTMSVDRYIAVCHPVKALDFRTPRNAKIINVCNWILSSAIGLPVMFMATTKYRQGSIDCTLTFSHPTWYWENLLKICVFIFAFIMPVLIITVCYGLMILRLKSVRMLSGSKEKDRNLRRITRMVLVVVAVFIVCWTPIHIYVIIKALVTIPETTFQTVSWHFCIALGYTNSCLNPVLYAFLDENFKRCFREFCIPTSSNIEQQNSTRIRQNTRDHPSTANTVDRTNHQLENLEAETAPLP
# KOPr in U87-MG human astrocytoma cells, sequence (P41145 whole entry): as the sequence (P41145 whole entry) above
# KOPr in normal human astrocytes, sequence (P41145 whole entry): as above
compound,measurement,setting,value
"C[S+]([O-])c1ccc(-c2nc(-c3ccncc3)c(-c3ccc(F)cc3)[nH]2)cc1 (stereo not drawn) [SB203580, reference compound]","Effect on U50,488 (1 µM)-mediated increase of U87-MG cell proliferation",U87-MG cells; [10],prevented
same,"Effect on U50,488 (1 µM)-enhanced normal human astrocyte cell proliferation",normal human astrocytes,abolished
"O=C1CNC(=O)[C@H](Cc2ccccc2)NC(=O)[C@@H](Cc2c[nH]c3ccccc23)NC(=O)CCN1 [LOR17, c[Phe-Gly-(β-Ala)-D-Trp]] (cyclo(FG[βAla][dW]))",Ki,hMOPr,> 100 µM
same,Ki,hDOPr,> 100 µM
same,log(τ/KA) G Protein,KOPr [1],"8,856"
same,Δlog(τ/KA) G Protein,KOPr [1],"0,261"
same,Emax,"KOPr [1]; HEK293, read-out: Emax HEK-293/KOR",85 ± 5%
same,Emax,[2],87 ± 4%
same,Emax,[3],88 ± 6%
same,log(τ/KA) β-arrestin 2,KOPr [4],"3,432"
same,Δlog(τ/KA) β-arrestin 2,KOPr [4],"-2,67"
same,β-arrestin 2 recruitment at KOPr,KOPr [4],very week β-arrestin 2 recruitment at KOPr and only at concentrations higher than 1 μM
same,Bias Factor,hKOPr,853
same,ΔΔlog(τ/KA),hKOPr,"2,931"
same,ERK1/2 phosphorylation levels vs vehicle,ERK1/2 phosphorylation,significant increase in ERK1/2 phosphorylation only after 15 min of exposure
same,"Effect on U50,488-induced p38MAPK phosphorylation",p38MAPK phosphorylation,"counteracted U50,488-induced p38MAPK phosphorylation in a concentration-dependent fashion"
same,p38MAPK phosphorylation vs vehicle,p38MAPK phosphorylation,does not influence p38MAPK phosphorylation
same,"Effect on U50,488 (1 µM)-mediated increase of U87-MG cell proliferation",U87-MG cells,prevented the increase in U87-MG cell proliferation
same,U87-MG cell proliferation rate vs vehicle,U87-MG cells,did not alter the U87-MG cell proliferation rate
same,Antinociception in the tail-withdrawal test,"CD-1 adult male mice [5]; mouse, in vivo",antinociceptive response in a dose- and time-dependent fashion
same,"ED50, warm-water tail-withdrawal test","CD-1 adult male mice [5]; mouse, in vivo, ip",10.07 ± 0.36 mg/kg
same,Number of writhes vs vehicle,CD-1 adult male mice [6],significantly reduced the number of writhes
same,"ED50, writhing test",CD-1 adult male mice [6]; ip,5.74 ± 0.46 mg/kg
same,"Effect on oxaliplatin-induced thermal hypersensitivity, single s.c. administration",CD-1 adult male mice [7],fully reversed the oxaliplatin-dependent hypersensitivity
same,Efficacy in cold plate test after repeated treatment,CD-1 adult male mice [7],maintains its efficacy
same,Licking latency (maximal effect),CD-1 adult male mice [7],18.2 ± 1.4 s and 19.6 ± 1.7 s
same,Dose from which licking latency increase takes effect,CD-1 adult male mice [7]; sc,1 mg/kg
same,"ED50, oxaliplatin-induced thermal hypersensitivity (cold plate test)",CD-1 adult male mice [7]; sc,6.63 ± 0.23 mg/kg
same,Board (locomotor activity),CD-1 adult male mice [8]; 0 min,89.2 ± 7.3 counts in 5 min
same,Hole (exploratory activity),CD-1 adult male mice [8]; 0 min,37.2 ± 3.9 counts in 5 min
same,Board (locomotor activity),CD-1 adult male mice [8]; 30 min,97.2 ± 16.9 counts in 5 min
same,Hole (exploratory activity),CD-1 adult male mice [8]; 30 min,39.0 ± 4.6 counts in 5 min
same,Mobility time,CD-1 adult male mice [9],91.6 ± 12.3 s
"Oc1ccc2c3c1O[C@H]1c4[nH]c5c(c4C[C@@]4(O)[C@@H](C2)N(CC2CC2)CC[C@]314)C[C@@]1(O)[C@H]2Cc3ccc(O)c4c3[C@@]1(CCN2CC1CC1)[C@H]5O4 [norBNI, norbinaltorphimine, reference compound]",LOR17 (1 μM)-mediated increase in ERK1/2 phosphorylation after antagonist,"ERK1/2 phosphorylation; norBNI 10 μM, 30 min prior to LOR17, HEK-293/hKOPr and U87-MG cells",fully reverted
same,"Effect on U50,488 (1 µM)-mediated increase of U87-MG cell proliferation",U87-MG cells; [10],prevented
same,Effect on LOR17-mediated antinociception in the tail-withdrawal test,CD-1 adult male mice [5]; norBNI 10 mg/kg i.p.,prevented
